According to US8722744B2, “Galenical form for the administration of paracetamol by transmucous means” (priority 2006, dated 2014):

Assays:
[1] = Dissolution of paracetamol in hydroalcoholic solution; assay type: physicochemical; settings: ethanol at 45%
Method: The coefficient for dissolution of paracetamol in ethanol makes it possible to obtain a complete dissolution of said active ingredient at a level of 250 mg of paracetamol per 2 ml of ethanol at 45%. This coefficient can be modulated based on the degree of alcohol and the water/ethanol ratio that is used. By way of example, a 45% water/ethanol mixture at 50/50 by volume produces a better solubilization of paracetamol, compared to that obtained in pure ethanol.

[2] = administered dosage; cited from earlier work

complete dissolution of the active ingredient [1]: 250 mg per 2 ml
Structure (SMILES): CC(=O)Nc1ccc(O)cc1 [paracetamol]
dosage above which toxic to the liver [2]: higher than 4 g
